Measurements reported in ChEMBL document CHEMBL5584256, “Bromine/Sulfur-Substituted 9H-Carbazoles Produced by the Marine-Derived Streptomyces sp. OUCMDZ-5511 upon NaBr Exposure” (J Nat Prod, 2024).
The source made the active and inactive calls. The calls are words filed in the database; no cut-off is given here.

Key:
[1] = organism: Danio rerio; assay: Anti-inflammatory activity in transgenic zebrafish harboring Tg (zlyz:EGFP) assessed as reduction in CuSO4-induced immune cell migration at 10 uM preincubated for 2 hrs followed by CuSO4 treatment for 45 mins by fluorescence microscopy; format: functional, organism-based; conditions: time 165.0 min
[2] = organism: Danio rerio; assay: Anti-inflammatory activity in transgenic zebrafish harboring Tg (zlyz:EGFP) assessed as reduction in CuSO4-induced MYD88 mRNA level at 5 to 15 uM preincubated for 2 hrs followed by CuSO4 treatment for 45 mins […]; format: functional, organism-based; conditions: dose 5-15 µM, time 165.0 min
[3] = organism: Danio rerio; assay: Anti-inflammatory activity in transgenic zebrafish harboring Tg (zlyz:EGFP) assessed as reduction in CuSO4-induced p38 mRNA level at 5 to 15 uM preincubated for 2 hrs followed by CuSO4 treatment for 45 mins […]; format: functional, organism-based; conditions: dose 5-15 µM, time 165.0 min
[4] = organism: Danio rerio; assay: Anti-inflammatory activity in transgenic zebrafish harboring Tg (zlyz:EGFP) assessed as reduction in CuSO4-induced TRAF6 mRNA level at 5 to 15 uM preincubated for 2 hrs followed by CuSO4 treatment for 45 mins […]; format: functional, organism-based; conditions: dose 5-15 µM, time 165.0 min
[5] = organism: Danio rerio; assay: Anti-inflammatory activity in transgenic zebrafish harboring Tg (zlyz:EGFP) assessed as reduction in CuSO4-induced NF-kappa-b mRNA level at 5 to 15 uM preincubated for 2 hrs followed by CuSO4 treatment for 45 mins […]; format: functional, organism-based; conditions: dose 5-15 µM, time 165.0 min
[6] = organism: Danio rerio; assay: Anti-inflammatory activity in transgenic zebrafish harboring Tg (zlyz:EGFP) assessed as increase in CuSO4-reduced PPAR-gamma mRNA level at 5 to 15 uM preincubated for 2 hrs followed by CuSO4 treatment for 45 mins […]; format: functional, organism-based; conditions: dose 5-15 µM, time 165.0 min
[7] = Toxicity in transgenic zebrafish harboring Tg (zlyz:EGFP) preincubated for 2 hrs followed by CuSO4 treatment for 45 mins; set-up: species or system Danio rerio; conditions: in vivo, time 165 min
[8] = organism: Danio rerio; assay: Anti-inflammatory activity in transgenic zebrafish harboring Tg (zlyz:EGFP) assessed as reduction in CuSO4-induced IL-8 mRNA level at 5 to 15 uM preincubated for 2 hrs followed by CuSO4 treatment for 45 mins […]; format: functional, organism-based; conditions: dose 5-15 µM, time 165.0 min
[9] = organism: Danio rerio; assay: Anti-inflammatory activity in transgenic zebrafish harboring Tg (zlyz:EGFP) assessed as reduction in CuSO4-induced I-kappa-b-alpha mRNA level at 5 to 15 uM preincubated for 2 hrs followed by CuSO4 treatment for 45 mins […]; format: functional, organism-based; conditions: dose 5-15 µM, time 165.0 min
[10] = organism: Danio rerio; assay: Anti-inflammatory activity in transgenic zebrafish harboring Tg (zlyz:EGFP) assessed as reduction in CuSO4-induced AP-1 mRNA level at 5 to 15 uM preincubated for 2 hrs followed by CuSO4 treatment for 45 mins […]; format: functional, organism-based; conditions: dose 5-15 µM, time 165.0 min
[11] = organism: Danio rerio; assay: Anti-inflammatory activity in transgenic zebrafish harboring Tg (zlyz:EGFP) assessed as reduction in CuSO4-induced IKK-beta mRNA level at 5 to 15 uM preincubated for 2 hrs followed by CuSO4 treatment for 45 mins […]; format: functional, organism-based; conditions: dose 5-15 µM, time 165.0 min
[12] = organism: Danio rerio; assay: Anti-inflammatory activity in transgenic zebrafish harboring Tg (zlyz:EGFP) assessed as reduction in CuSO4-induced MAP3K7 mRNA level at 5 to 15 uM preincubated for 2 hrs followed by CuSO4 treatment for 45 mins […]; format: functional, organism-based; conditions: dose 5-15 µM, time 165.0 min
[13] = organism: Danio rerio; assay: Anti-inflammatory activity in transgenic zebrafish harboring Tg (zlyz:EGFP) assessed as reduction in CuSO4-induced IRAK4 mRNA level at 5 to 15 uM preincubated for 2 hrs followed by CuSO4 treatment for 45 mins […]; format: functional, organism-based; conditions: dose 5-15 µM, time 165.0 min
[14] = organism: Danio rerio; assay: Anti-inflammatory activity in transgenic zebrafish harboring Tg (zlyz:EGFP) assessed as reduction in CuSO4-induced immune cell migration at 5 to 15 uM preincubated for 2 hrs followed by CuSO4 treatment for 45 mins by fluorescence microscopy; format: functional, organism-based; conditions: dose 5-15 µM, time 165.0 min
[15] = organism: Danio rerio; assay: Anti-inflammatory activity in transgenic zebrafish harboring Tg (zlyz:EGFP) assessed as reduction in CuSO4-induced IRAK1 mRNA level at 5 to 15 uM preincubated for 2 hrs followed by CuSO4 treatment for 45 mins […]; format: functional, organism-based; conditions: dose 5-15 µM, time 165.0 min
[16] = organism: Danio rerio; assay: Anti-inflammatory activity in transgenic zebrafish harboring Tg (zlyz:EGFP) assessed as reduction in CuSO4-induced TGF-beta mRNA level at 5 to 15 uM preincubated for 2 hrs followed by CuSO4 treatment for 45 mins […]; format: functional, organism-based; conditions: dose 5-15 µM, time 165.0 min

SMILES | Activity [1] | Activity [2] | Activity [3] | Activity [4] | Activity [5] | Activity [6] | LC50 at 0.75 h [7] | Activity [8] | Activity [9] | Activity [10] | Activity [11] | Activity [12] | Activity [13] | Activity [14] | Activity [15] | Activity [16]
COc1ccc2[nH]c3c(ccc4scnc43)c2c1Br | Active | – | – | – | – | – | – | – | – | – | – | – | – | – | – | –
COc1ccc2[nH]c3c(O)cccc3c2c1Br | Active | Active | Active | Active | Active | Active | 68 µM | Active | Active | Active | Active | Active | Active | Active | Active | Active
